Laboratory results taken from patent US4833134A, “Cephem compounds” (Takeda Chemical Industries, Ltd., priority 1986, dated 1989).
Where a name gives a salt, the structure may show the parent alone.

Key:
[1] = system: Staphylococcus aureus 1840; assay: MIC (minimum inhibitory concentration), agar dilution method; assay type: cell-based; conditions: trypticase soy agar, ca. 10^8 CFU/ml, 37° C., 18 hours
Protocol: (§1) The MIC value of the test compound was determined by agar dilution method. More specifically, 1.0 ml of an aqueous solution of the test compound diluted serially was poured into a petri dish, to which were added 9.0 ml of trypticase soy agar, followed by mixing. On the mixed agar plate was spread a suspension of the test microorganism (ca. 10^8 CFU/ml), which was incubated at 37° C. for 18 hours. The lowest concentration of the test compound completely inhibiting the growth of the test microorganism was expressed by MIC (minimum inhibitory concentration).
(1) Staphylococcus aureus 1840

[2] = system: Escherichia coli T7; assay: as above; assay type: cell-based; conditions: trypticase soy agar, ca. 10^8 CFU/ml, 37° C., 18 hours
Protocol: as §1

Structure (SMILES): CCON=C(C(=O)NC1C(=O)N2C(C(=O)[O-])=C(C[n+]3ccc(SCCCN)cc3)CSC12)c1csc(N)n1 (stereo not drawn) [Example 2, 7β-[2-(2-aminothiazol-4-yl)-(Z)-2-ethoxyiminoacetamido]-3-{[4-(3-aminopropylthio)-1-pyridinium]methyl}-3-cephem-4-carboxylate hydrochloride]
- MIC [1]: 0.78 µg/mL
- MIC [2]: 0.2 µg/mL
